Oligonucleotides are written 5' to 3', each unit as a sugar letter and its base; * is a phosphorothioate linkage, no mark a phosphodiester; rarer units and linkages stand in square brackets, end groups in braces. Plain capitals give the bases only. d = 2'-deoxy (DNA)
Experiments:
Format in all cases: cell-based
[1] = system: human pDCs; test: Surface ICOS-L and PD-L1 expression in CCR6+CD123+ human pDCs by FACS; conditions: human pDCs, 24 hrs, FIG. 2B
Description: To evaluate surface ICOS-L, PD-L1 expression in the CCR6+CD123+ pDC cell subsets, PBMCs were incubated on ice in the presence of Fc-Block (BD Pharmingen) for 20 minutes, washed, and incubated with antibodies specific for surface molecules or isotype-matched control mAbs. APC-labeled anti-human ICOS-L mAb were purchased from BioLegend, PECY-7-labeled anti-human CCR6 mAb, FITC-labeled anti-human PD-L1 mAb and PerCP-Cy5.5 labeled anti-human CD123 mAb were purchased from BD Biosciences. The stained cells were then subjected to FACS (FACSCanto, BD Biosciences) using FACSDiva software. FACS analysis was performed using FlowJo software. Single, viable cells in the CCR6+CD123+ pDC gates were analyzed. The flow cytometric results are expressed as the percentage and MFI of ICOSL-, or PD-L1-expressing cells in each gate.
pDCs were isolated and ICOS-L expression was analyzed as described in Example 2.

[2] = system: canonical NF-κB promoter reporter; test: Mouse Raw Blue Reporter Cells, SEAP reporter driven by canonical NF-κB promoter (FIG. 11); conditions: mouse macrophages, 24 hrs
Description: Mouse Raw Blue Reporter Cells (Invivogen), containing a secreted embryonic alkaline phosphatase (SEAP) reporter gene driven by canonical NF-κB promoter, were plated in 96-well plates at 50,000 cells/well in DMEM Media supplemented with 10% FBS, 2 mM L-glutamine, 1% Pen/Strep, […] Normacin. […] The supernatant was harvested and tested for SEAP production by measuring OD at 630 nm.

[3] = system: human PBMCs; test: Cytokine production by human PBMCs treated with ODNs, MagPix Multi-Plex; design: key to IL-6, IL-12: (↑) indicates a weak but detectable activity; (↑↑) and (↑↑↑) indicate different levels of moderate activities; (↑↑) and (↑↑↑) indicate different levels of moderate activities; (↑↑↑↑) indicates a strong activity; (−) indicates no detectable activity; conditions: for IFN-γ / IL-1β / IL-6 / IL-10 / IL-12p40 / IP10 / TNF-α: human PBMC, 24 hrs
Description: PBMC from 3 donors were isolated from Buffy Coat (Blood Center of NY). The cells were washed with PBS and re-suspended in RPMI-1640 Media with 5% Human AB Serum, 1% Pen/Strep and 2 mM L-glutamine. The cells were then plated in 96-well plates at 250,000 cells/well. […] After 24 hrs, the supernatant was harvested and tested for cytokine production using MagPix Multi-Plex Technology. The following cytokines were tested: IL-6, IL-10, IL-12p40, IFN-α, IFN-γ, IP-10, IL-1β and TNF-α.

[4] = biological target: T1, TLR9 (Homo sapiens, UniProt Q9NR96); test: NF-κB reporter gene in recombinant TLR9-expressing HEK293 cells
T1 construct: expressed in transfected cells; host or cells: TLR9 expressing HEK293 reporter cells with a human NF-κB reporter construct
T1 sequence (Q9NR96 26-1032): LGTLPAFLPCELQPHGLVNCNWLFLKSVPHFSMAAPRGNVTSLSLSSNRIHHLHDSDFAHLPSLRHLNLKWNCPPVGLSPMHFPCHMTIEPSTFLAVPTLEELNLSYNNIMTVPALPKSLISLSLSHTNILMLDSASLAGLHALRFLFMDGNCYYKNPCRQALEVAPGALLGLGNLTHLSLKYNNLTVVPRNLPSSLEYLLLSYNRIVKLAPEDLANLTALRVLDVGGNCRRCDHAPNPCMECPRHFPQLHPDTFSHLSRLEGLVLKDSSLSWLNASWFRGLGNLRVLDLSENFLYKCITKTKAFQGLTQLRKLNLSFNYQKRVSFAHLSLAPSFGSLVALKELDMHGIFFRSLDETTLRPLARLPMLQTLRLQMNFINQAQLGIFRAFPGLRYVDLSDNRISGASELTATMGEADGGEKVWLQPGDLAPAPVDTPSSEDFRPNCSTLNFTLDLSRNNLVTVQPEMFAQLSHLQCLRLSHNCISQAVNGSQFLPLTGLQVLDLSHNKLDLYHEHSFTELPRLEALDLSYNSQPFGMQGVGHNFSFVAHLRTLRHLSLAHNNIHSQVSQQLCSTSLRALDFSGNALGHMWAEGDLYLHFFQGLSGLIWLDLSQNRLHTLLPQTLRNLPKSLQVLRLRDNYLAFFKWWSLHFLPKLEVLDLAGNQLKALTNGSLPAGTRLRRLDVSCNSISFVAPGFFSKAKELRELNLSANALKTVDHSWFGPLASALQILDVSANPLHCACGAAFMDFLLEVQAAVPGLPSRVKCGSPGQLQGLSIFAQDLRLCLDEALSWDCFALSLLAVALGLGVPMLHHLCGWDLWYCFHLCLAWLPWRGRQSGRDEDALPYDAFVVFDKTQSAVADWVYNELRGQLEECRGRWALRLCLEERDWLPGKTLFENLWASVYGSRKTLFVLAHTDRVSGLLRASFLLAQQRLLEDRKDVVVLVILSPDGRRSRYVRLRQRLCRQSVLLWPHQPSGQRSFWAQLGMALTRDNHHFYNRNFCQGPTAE
Description: FIGS. 16A-B show results of experiments in which recombinant TLR-expressing HEK293 cells carrying an NF-κB reporter gene were incubated with COMPOUND(I), ODN150, ODN2006, or ODN7040 for 48 hours at the indicated concentrations.

[5] = PBMC, relative strength, Table 6

“ODN150: 5′-G*G*A*ACAGTTCGTCCAT*G*G*C-3′, PO except * = PS; antisense to p65 of NF-kB mRNA; tested clinically for ulcerative colitis (DNA dG*dG*dA*dAdCdAdGdTdTdCdGdTdCdCdAdT*dG*dG*dC)” was tested, and the PD-L1 protein induction [1] was “can induce”, the “concentration from which the NF-κB reporter is activated” value [2] was 10 µM and the “activation of canonical NF-κB reporter” value ([2]; SEAP, COMPOUND (I) up to 10 μM) was “activate”. The “IL-6, IL-12” value [3, 5] was “↑”, the “TNFα, IFNγ” value [3, 5] was “—/↑” and the “IFNα secretion from PBMCs” value ([3]; any tested concentration between 0.01 μM and 10 μM, FIG. 25) was “not found to induce”. The IFN-γ ([3]; high-dose ODN 10 μM) was 0.2 pg/mL, the IL-1β ([3]; high-dose ODN 10 μM) was 0.6 pg/mL and the IL-6 ([3]; high-dose ODN 10 μM) was 11.8 fold change. It also gave an IL-10 ([3]; high-dose ODN 10 μM) of 1.6 fold change, an IL-12p40 ([3]; high-dose ODN 10 μM) of 0 pg/mL and an IP10 ([3]; high-dose ODN 10 μM) of 8.1 fold change. The TNF-α ([3]; high-dose ODN 10 μM) was 2 fold change, the IFN-γ ([3]; low-dose ODN 0.1 μM) was 0.2 pg/mL and the IL-1β ([3]; low-dose ODN 0.1 μM) was 0.2 pg/mL. It also gave an IL-6 ([3]; low-dose ODN 0.1 μM) of 1.2 fold change, an IL-10 ([3]; low-dose ODN 0.1 μM) of 0.9 fold change and an IL-12p40 ([3]; low-dose ODN 0.1 μM) of 0 pg/mL. For the same substance, the IP10 ([3]; low-dose ODN 0.1 μM) was 1.5 fold change, the TNF-α ([3]; low-dose ODN 0.1 μM) was 1.2 fold change and the “TLR pathway activation (NF-κB)” value ([4]; Reporter Cell, relative strength, Table 6) was “↑ ↑”. For the same substance, the “NF-κB reporter gene activation” value ([4]; TLR9-expressing HEK293 cells, 48 hours, FIGS. 16A-B) was “concentration-dependent NF-kB induction”.
